According to article PMC11679705 (2024):

Columns and labels:
[1] = system: F-SA5-T (DNA, G4) GGAAGGAGGGGTGACAGGG; experiment: FRET melting; conditions: 10 mM K+, 90 mM Li+; 10 mM lithium cacodylate, pH 7.2; 5 µM compound, 0.2 µM DNA
[2] = system: F-ds26-T (DNA, duplex) CAATCGGATCGAATTCGATCCGATTG; experiment: FRET melting; conditions: 10 mM K+, 90 mM Li+; 10 mM lithium cacodylate, pH 7.2; 5 µM compound, 0.2 µM DNA
[3] = system: ds26 (DNA, duplex) CAATCGGATCGAATTCGATCCGATTG; experiment: UV/Vis titration; conditions: 100 mM K+, 10 mM lithium cacodylate, pH 7.2, independent-and-equivalent-sites model
[4] = system: EBR1 (DNA, G4) GGGCAGGGGGTGATGGGGAGGAGCCAGGG; experiment: UV/Vis titration; design: unit not given here; conditions: 100 mM K+, 10 mM lithium cacodylate, pH 7.2, independent-and-equivalent-sites model
[5] = system: F-SA3-T (DNA, G4) GGGGCTAATTGGGGCTGGTGG; experiment: FRET melting; conditions: 10 mM K+, 90 mM Li+; 10 mM lithium cacodylate, pH 7.2; 5 µM compound, 0.2 µM DNA
[6] = system: SA5 (DNA, G4) GGAAGGAGGGGTGACAGGG; experiment: UV/Vis titration; design: unit not given here; conditions: 100 mM K+, 10 mM lithium cacodylate, pH 7.2, independent-and-equivalent-sites model
[7] = system: mit9438 (DNA, G4) GGCGTAGGTTTGGTCTAGGG; experiment: UV/Vis titration; design: unit not given here; conditions: 100 mM K+, 10 mM lithium cacodylate, pH 7.2, independent-and-equivalent-sites model
[8] = system: F-mit9438-T (DNA, G4) GGCGTAGGTTTGGTCTAGGG; experiment: FRET melting; conditions: 10 mM K+, 90 mM Li+; 10 mM lithium cacodylate, pH 7.2; 5 µM compound, 0.2 µM DNA
[9] = system: F-21-T (DNA, G4) GGGTTAGGGTTAGGGTTAGGG; experiment: FRET melting; conditions: 10 mM K+, 90 mM Li+; 10 mM lithium cacodylate, pH 7.2; 5 µM compound, 0.2 µM DNA
[10] = system: F-mit6363-T (DNA, G4) AGGGACGCGGGCGGGGGATATAGGGT; experiment: FRET melting; conditions: 10 mM K+, 90 mM Li+; 10 mM lithium cacodylate, pH 7.2; 5 µM compound, 0.2 µM DNA
[11] = system: F-EBR1-T (DNA, G4) GGGCAGGGGGTGATGGGGAGGAGCCAGGG; experiment: FRET melting; conditions: 10 mM K+, 90 mM Li+; 10 mM lithium cacodylate, pH 7.2; 5 µM compound, 0.2 µM DNA

| SMILES | ΔTm [2] | Ka ([3]; 7 µM ligand) | Ka ([4]; 7 µM ligand) | Ka ([6]; 7 µM ligand) | Ka ([7]; 7 µM ligand) | other results |
| --- | --- | --- | --- | --- | --- | --- |
| CCCNc1cc2c3c(ccc4c3c1C(=O)N(CCCN(C)C)C4=O)C(=O)N(CCCN(C)C)C2=O |  |  |  |  |  | ΔTm [1]: 4.7 ± 1.0 °C |
| C[N+](C)(C)c1ccc(/C=C/c2cc(/C=C/c3ccc([N+](C)(C)C)cc3)c(/C=C/c3ccc([N+](C)(C)C)cc3)cc2/C=C/c2ccc([N+](C)(C)C)cc2)cc1 | -4.7 ± 0.6 °C | 0.562 µM⁻¹ | 0.801 | 1.065 | 1.420 | ΔTm [5]: 9.7 ± 0.6 °C |
| C[N+](C)(C)c1ccc(/C=C/c2cc(/C=C/c3ccc([N+](C)(C)C)cc3)cc(/C=C/c3ccc([N+](C)(C)C)cc3)c2)cc1 |  |  |  |  |  | Ka ([3]; 4 µM ligand): 0.083 µM⁻¹; Ka ([4]; 4 µM ligand): 0.672; ΔTm [5]: 31.3 ± 0.6 °C; Ka ([6]; 4 µM ligand): 0.651; Ka ([7]; 4 µM ligand): 0.821 |
| C[n+]1ccc(-c2c3nc(c(-c4cc[n+](C)cc4)c4ccc([nH]4)c(-c4cc[n+](C)cc4)c4nc(c(-c5cc[n+](C)cc5)c5ccc2[nH]5)C=C4)C=C3)cc1 |  |  |  |  |  | ΔTm [1]: 29.0 ± 2.1 °C; ΔTm [8]: 31.0 ± 0.0 °C |
| C[n+]1ccc(/C=C/c2cc(/C=C/c3cc[n+](C)cc3)c(/C=C/c3cc[n+](C)cc3)cc2/C=C/c2cc[n+](C)cc2)cc1 | 9.0 ± 1.0 °C | 0.267 µM⁻¹ | 0.367 | 0.513 | 1.548 | ΔTm [9]: 34.7 ± 0.0 °C; ΔTm [10]: 33.0 ± 0.0 °C; ΔTm [11]: 35.3 ± 0.6 °C |
| C[n+]1ccc(/C=C/c2cc(/C=C/c3cc[n+](C)cc3)cc(/C=C/c3cc[n+](C)cc3)c2)cc1 |  | 0.165 µM⁻¹ | 0.528 | 1.411 | 1.167 |  |
| NCCOc1cc(C(=O)Nc2cc(OCCN)c3ccccc3n2)nc(C(=O)Nc2cc(OCCN)c3ccccc3n2)c1 | 0.7 ± 0.6 °C |  |  |  |  | ΔTm [9]: 24.0 ± 1.1 °C |
